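48-hour exposure; five concentrations; linearly interpolated endpoints. The concentration for 50% growth inhibition is given as GI50.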 Calls of active or inactive are those of the source. Cut-off read from the data, not from the text of the source: active = GI50 up to about 1.1 µM and inactive = higher.
Assays:
Assay in all cases: NCI-60 cell line screen, 48 h
[1] = tested on: SK-OV-3
[2] = tested on: UACC-62
[3] = tested on: MDA-MB-435
[4] = tested on: HCC 2998
[5] = tested on: BT-549
[6] = tested on: UO-31
[7] = tested on: OVCAR-3
[8] = tested on: K562
[9] = tested on: HL-60
[10] = tested on: CAKI-1
[11] = tested on: NCI-H460
[12] = tested on: SNB-19
[13] = tested on: HT-29
[14] = tested on: RXF 393
[15] = tested on: IGROV-1
[16] = tested on: HOP-92
[17] = tested on: SN12C
[18] = tested on: MDA-MB-231
[19] = tested on: PC-3
[20] = tested on: SR

Measured: GI50

Cc1nc(Nc2ccc(Cl)c(Cl)c2)sc1C(=O)/C=C/c1ccc2c(c1)OCO2
inactive: [1] 18.7 µM | [2] 37.6 µM | [3] 20.5 µM | [4] 30.2 µM | [5] 21.5 µM | [6] 16.9 µM | [7] 10.4 µM | [8] 31.6 µM | [9] 18.9 µM | [10] 16.5 µM | [11] 34.5 µM | [12] 21.5 µM | [13] 36.8 µM | [14] 15.9 µM | [15] 38.6 µM

O=C(/C=C/c1ccc(O)c(O)c1O)OCCc1ccccc1
inactive: [1] 90.8 µM | [16] 56.1 µM | [2] 34 µM | [3] 17.5 µM | [4] > 100 µM | [17] 18.4 µM | [6] 38.7 µM | [7] 21.6 µM | [18] 24.9 µM | [8] 11.6 µM | [9] 22 µM | [10] > 100 µM | [19] 48.9 µM | [11] 21.6 µM | [12] 49.9 µM | [13] 22.7 µM | [20] 15.8 µM | [14] 36.1 µM | [15] 32.9 µM

CC(C)/C(Cl)=N\OC(NC(=O)P(=O)(c1ccccc1)c1ccccc1)(C(F)(F)F)C(F)(F)F
inactive: [1] 27 µM | [16] 2.46 µM | [2] 16 µM | [3] 16.3 µM | [4] 14.8 µM | [17] 11.9 µM | [6] 7.05 µM | [7] 4.97 µM | [18] 16 µM | [8] 4.25 µM | [9] 11.5 µM | [10] 23.7 µM | [19] 12.6 µM | [11] 15.2 µM | [12] 17.9 µM | [13] 16.1 µM | [20] 14.7 µM | [14] 14.6 µM | [15] 10.8 µM

N/N=C1/CCCc2nonc21
inactive: [1] > 100 µM | [16] > 100 µM | [2] > 100 µM | [3] > 100 µM | [4] > 100 µM | [17] > 100 µM | [7] > 100 µM | [18] > 100 µM | [8] > 100 µM | [9] > 100 µM | [10] > 100 µM | [19] > 100 µM | [11] > 100 µM | [13] > 100 µM | [20] > 100 µM | [14] > 100 µM | [15] > 100 µM

Cc1ccc(S(=O)OCc2c(C)c(C)c(COS(=O)c3ccc(C)cc3)c(C)c2C)cc1 (centres undefined)
inactive: [1] > 100 µM | [16] > 100 µM | [2] > 100 µM | [4] > 100 µM | [17] > 100 µM | [6] > 100 µM | [7] > 100 µM | [8] 65.5 µM | [9] > 100 µM | [10] > 100 µM | [11] > 100 µM | [12] > 100 µM | [13] > 100 µM | [20] > 100 µM | [14] > 100 µM | [15] > 100 µM

C=CCN1CCC(OC(=O)C(O)(C#CC)C2CCCC2)CC1 (centres undefined)
inactive: [1] > 100 µM | [16] > 100 µM | [2] > 100 µM | [3] > 100 µM | [4] > 100 µM | [17] > 100 µM | [5] > 100 µM | [6] > 100 µM | [7] > 100 µM | [18] > 100 µM | [10] > 100 µM | [19] > 100 µM | [11] > 100 µM | [12] > 100 µM | [13] > 100 µM | [14] > 100 µM | [15] > 100 µM

CCOC(=O)CN1C(=O)C(=O)N(c2ccc(OC)c3ccccc23)C1=O
inactive: [1] > 100 µM | [2] > 100 µM | [3] > 100 µM | [4] > 100 µM | [17] > 100 µM | [5] > 100 µM | [6] 34.6 µM | [7] > 100 µM | [8] > 100 µM | [9] > 100 µM | [10] > 100 µM | [19] > 100 µM | [12] > 100 µM | [13] > 100 µM | [20] > 100 µM | [14] > 100 µM

Cc1cs/c(=N/c2ccccc2)n1CCC(O)(P(=O)(O)O)P(=O)(O)O
inactive: [1] > 100 µM | [2] > 100 µM | [4] > 100 µM | [5] > 100 µM | [6] > 100 µM | [7] > 100 µM | [18] > 100 µM | [10] > 100 µM | [19] > 100 µM | [11] 90.6 µM | [12] > 100 µM | [13] > 100 µM | [14] > 100 µM | [15] > 100 µM

C/C(O[Si](C(C)C)(C(C)C)C(C)C)=C(\C)C(=O)N(C)c1ccccc1Cl
inactive: [16] > 100 µM | [3] > 100 µM | [17] > 100 µM | [5] > 100 µM | [6] > 100 µM | [7] > 100 µM | [18] > 100 µM | [10] > 100 µM | [11] > 100 µM | [12] > 100 µM | [13] > 100 µM | [14] > 100 µM | [15] > 100 µM

C/C(=C\CNc1nc(Cl)nc2[nH]cnc12)CO
inactive: [1] > 100 µM | [16] > 100 µM | [2] > 100 µM | [3] > 100 µM | [4] > 100 µM | [17] > 100 µM | [6] > 100 µM | [7] > 100 µM | [18] > 100 µM | [8] > 100 µM | [9] > 100 µM | [10] > 100 µM | [19] > 100 µM | [11] > 100 µM | [12] > 100 µM | [13] > 100 µM | [20] > 100 µM | [14] > 100 µM | [15] > 100 µM

CC(=O)OCC1OC(SC2OC(COC(C)=O)C(OC(C)=O)C(OC(C)=O)C2OC(C)=O)C(OC(C)=O)C(OC(C)=O)C1OC(C)=O (centres undefined)
inactive: [1] > 100 µM | [2] > 100 µM | [3] > 100 µM | [4] > 100 µM | [17] > 100 µM | [5] > 100 µM | [6] > 100 µM | [7] > 100 µM | [18] > 100 µM | [8] > 100 µM | [9] > 100 µM | [10] > 100 µM | [11] > 100 µM | [12] > 100 µM | [13] > 100 µM | [20] > 100 µM | [14] > 100 µM | [15] > 100 µM

COc1cc(OC2OC(CO)C(O)C(O)C2O)c2c(c1)O[C@@H]1[C@H](O)Oc3cc(OC)c(OC)cc3[C@]1(O)C2=O (some centres undefined)
inactive: [1] > 25 µM | [16] > 25 µM | [2] > 25 µM | [3] > 25 µM | [4] > 25 µM | [17] > 25 µM | [6] > 25 µM | [7] > 25 µM | [18] > 25 µM | [8] > 25 µM | [9] > 25 µM | [10] > 25 µM | [19] > 25 µM | [11] > 25 µM | [12] > 25 µM | [13] > 25 µM | [20] > 25 µM | [15] > 25 µM

CCOC(=O)[C@@H]1[C@@H](c2ccccc2)N(C)O[C@@]1(c1ccccc1)C(F)(F)F
inactive: [1] 43.7 µM | [16] > 100 µM | [2] 43.5 µM | [3] 28.4 µM | [17] > 100 µM | [5] > 100 µM | [6] > 100 µM | [7] 97.1 µM | [18] > 100 µM | [8] > 10 µM | [10] > 100 µM | [19] 58.5 µM | [12] > 100 µM | [13] 18.7 µM | [14] 40.2 µM | [15] > 100 µM

CCOP(=O)(OCC)C(c1ccccc1)N(C(=O)NC(F)(F)F)c1cccc(F)c1 (centres undefined)
inactive: [3] > 100 µM | [4] 55.8 µM | [17] > 100 µM | [6] 58.6 µM | [7] > 100 µM | [18] > 100 µM | [8] 63.8 µM | [9] > 100 µM | [10] > 100 µM | [19] 45.8 µM | [11] > 100 µM | [12] > 100 µM | [13] > 100 µM | [20] > 100 µM | [14] 64.7 µM | [15] 6.93 µM

O=C(Nc1cccc(F)c1)c1cc2ccc(O)cc2o/c1=N\c1cccc(F)c1
inactive: [1] 13.2 µM | [2] 5.57 µM | [3] 5.12 µM | [4] 27.1 µM | [17] 5.96 µM | [5] 4.82 µM | [6] 4.36 µM | [7] 4.91 µM | [8] 2.38 µM | [9] 2.65 µM | [10] 15.3 µM | [19] 17.9 µM | [11] 4.26 µM | [12] 8.97 µM | [13] > 100 µM | [20] 4.5 µM | [15] 2.08 µM

Oc1ccc(-c2nc3cc(F)ccc3s2)cc1
inactive: [1] 25.7 µM | [16] 21.3 µM | [2] 17.5 µM | [3] 20 µM | [4] 13.5 µM | [17] 22.2 µM | [5] 20 µM | [6] 19.3 µM | [7] 19.2 µM | [8] 22.6 µM | [9] 21.7 µM | [10] 23.7 µM | [19] 22.9 µM | [11] 19.3 µM | [12] 36.7 µM | [13] 23.3 µM | [20] 2.38 µM | [14] 27.4 µM | [15] 17.5 µM
